Here are results for one molecule from patent publication US10968222B2, “2-azabicyclo hexane JAK inhibitor compound” (THERAVANCE BIOPHARMA R&D IP, LLC, priority 2018, dated 2021).

The subject of test [1] is IL-2/anti-CD3 stimulated IFNγ in human PBMCs. Briefly: Inhibition of IL-2/anti-CD3 stimulated IFNγ in human PBMCs. The format is cell-based. The conditions noted are these: PBMC, 24 h stimulation, ELISA, read-out: pIC50, inhibition of IL-2/anti-CD3 stimulated IFNγ (converted). The protocol:
The potency of the test compound for inhibition of interleukin-2 (IL-2)/anti-CD3 stimulated interferon gamma (IFNγ) was measured in human peripheral blood mononuclear cells (PBMCs) isolated from human whole blood (Stanford Blood Center). Because IL-2 signals through JAK, this assay provides a measure of JAK cellular potency.
(1) Human peripheral blood mononuclear cells (PBMC) were isolated from human whole blood of healthy donors using a ficoll gradient. Cells were cultured in a 37° C., 5% CO2 humidified incubator in RPMI (Life Technologies) supplemented with 10% Heat Inactivated Fetal Bovine Serum (FBS, Life Technologies), 2 mM Glutamax (Life Technologies), 25 mM HEPES (Life Technologies) and 1× Pen/Strep (Life Technologies). Cells were seeded at 200,000 cells/well in media (50 μL) and cultured for 1 h. The compound was serially diluted in DMSO and then diluted another 500-fold (to a 2× final assay concentration) in media. […]
(2) After cytokine stimulation, cells were centrifuged at 500 g for 5 min and supernatants removed and frozen at −80° C. To determine the inhibitory potency of test compounds in response to IL-2/anti-CD3, supernatant IFNγ concentrations were measured via ELISA (R&D Systems). IC50 values were determined from analysis of the inhibition curves of concentration of IFNγ vs compound concentration. Data are expressed as pIC50 (negative decadic logarithm IC50) values.

The test system of test [2] is IL-2/anti-CD3 stimulated STAT5 phosphorylation in CD4+ T cells in human PBMCs. Briefly: Inhibition of IL-2 stimulated pSTAT5 in CD4+ T cells. The conditions noted are these: 0.5 h, 30 min stimulation, flow cytometry, read-out: pIC50, inhibition of IL-2 stimulated pSTAT5 in CD4+ T cells (converted). The format is cell-based. How it is done:
The potency of the test compound for inhibition of interleukin-2 (IL-2)/anti-CD3 stimulated STAT5 phosphorylation was measured in CD4-positive (CD4+) T cells in human peripheral blood mononuclear cells (PBMCs) isolated from human whole blood (Stanford Blood Center) using flow cytometry. Because IL-2 signals through JAK, this assay provides a measure of JAK cellular potency.
CD4+ T cells were identified using a […] (PE) conjugated anti-CD4 antibody (Clone RPA-T4, BD Biosciences), while an Alexa Fluor 647 conjugated anti-pSTAT5 antibody (pY694, Clone 47, BD Biosciences) was used to detect STAT5 phosphorylation. […]
(2) After cytokine stimulation, cells were fixed with pre warmed fix solution (200 μL; BD Biosciences) for 10 min at 37° C., 5% CO2, washed twice with DPBS buffer (1 mL, Life Technologies), and resuspended in ice cold Perm Buffer III (1000 μL, BD Biosciences) for 30 min at 4° C. […] After incubation, cells were washed twice in FACS buffer before being analyzed using a LSRII flow cytometer (BD Biosciences). To determine the inhibitory potency of the test compound in response to IL-2/anti-CD3, the median fluorescent intensity (MFI) of pSTAT5 was measured in CD4+ T cells. IC50 values were determined from analysis of the inhibition curves of MFI vs compound concentration.
Data are expressed as pIC50 (negative decadic logarithm IC50) values.
In general terms: Flow cytometry measures light scatter and fluorescence of single cells or particles in a stream.

The target in another test is T1, PKAC-ALPHA (Homo sapiens, UniProt P17612).
T1 construct: made in house; host or cells: E. coli BL21-derived host (T7 phage) or HEK-293 cells
Briefly: Kinome screen, PKAC-ALPHA. It is filed as binding. The settings on record: screened at 1 μM. How it is done:
Compounds 1 and C-1 were screened against other kinases to evaluate their selectivity profile.
Kinase-tagged T7 phage strains were grown in parallel in 24-well blocks in an E. coli host derived from the BL21 strain. E. coli were grown to log-phase and infected with T7 phage from a frozen stock (multiplicity of infection=0.4) and incubated with shaking at 32° C. until lysis (90-150 minutes). The lysates were centrifuged (6,000×g) and filtered (0.2 μm) to remove cell debris. The remaining kinases were produced in HEK-293 cells and subsequently tagged with DNA for qPCR detection.
Streptavidin-coated magnetic beads were treated with biotinylated small molecule ligands for 30 minutes at room temperature to generate affinity resins for kinase assays. The liganded beads were blocked with excess biotin and washed with blocking buffer (SeaBlock (Pierce), 1% BSA, 0.05% Tween 20, 1 mM DTT) to remove unbound ligand and to reduce non-specific phage binding. Binding reactions were assembled by combining kinases, liganded affinity beads, and test compounds in 1× binding buffer (20% SeaBlock, 0.17×PBS, 0.05% Tween 20, 6 mM DTT). Test compounds were prepared as 40× stocks in 100% DMSO and directly diluted into the assay. All reactions were performed in polypropylene 384-well plates in a final volume of 0.04 ml. […] The kinase concentration in the eluates was measured by qPCR. […]

`CCc1cc(O)c(F)cc1-c1cc(F)c2c(-c3nc4c([nH]3)CCN(C(=O)[C@]35C[C@H]3CCN5)C4)n[nH]c2c1` [Compound 1, (1S,5R)-2-azabicyclo[3.1.0]hexan-1-yl(2-(6-(2-ethyl-5-fluoro-4-hydroxyphenyl)-4-fluoro-1H-indazol-3-yl)-6,7-dihydro-3H-imidazo[4,5-c]pyridin-5(4H)-yl)methanone]: the IC50 in test [1] is 200 nM; in test [2], 20 nM. In addition, at PKAC-ALPHA, testing at 1 µM gave an inhibition of 22%.
